Biological target: ERα (Homo sapiens (Human), UniProt P03372)
Test: Estrogen receptor degradation activity: breast cancer cell ERα in cell western assay
Type: cell-based
Details: MCF7 cells; for % Degradation At 0.3 μM: 4 hours, normalised to fulvestrant 0.1 μM and DMSO; for IC50 / DC50: 4 hours post compound addition, concentration which degrades 50% of the estrogen receptor; for DC50: read-out: Degradation IC50
Procedure, shortened: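 MCF7 cells in phenol-red-free medium with 5% charcoal-stripped FBS, treated 4 h with 9-point 1:5 dilutions (0.3-0.0000018 μM final). ERα measured by in-cell western (anti-ER antibody, Alexa 488), normalized to Syto-64 DNA stain; % decrease scaled DMSO to 0.1 μM fulvestrant, IC50 in nM.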

Sequence of ERα (P03372 whole entry): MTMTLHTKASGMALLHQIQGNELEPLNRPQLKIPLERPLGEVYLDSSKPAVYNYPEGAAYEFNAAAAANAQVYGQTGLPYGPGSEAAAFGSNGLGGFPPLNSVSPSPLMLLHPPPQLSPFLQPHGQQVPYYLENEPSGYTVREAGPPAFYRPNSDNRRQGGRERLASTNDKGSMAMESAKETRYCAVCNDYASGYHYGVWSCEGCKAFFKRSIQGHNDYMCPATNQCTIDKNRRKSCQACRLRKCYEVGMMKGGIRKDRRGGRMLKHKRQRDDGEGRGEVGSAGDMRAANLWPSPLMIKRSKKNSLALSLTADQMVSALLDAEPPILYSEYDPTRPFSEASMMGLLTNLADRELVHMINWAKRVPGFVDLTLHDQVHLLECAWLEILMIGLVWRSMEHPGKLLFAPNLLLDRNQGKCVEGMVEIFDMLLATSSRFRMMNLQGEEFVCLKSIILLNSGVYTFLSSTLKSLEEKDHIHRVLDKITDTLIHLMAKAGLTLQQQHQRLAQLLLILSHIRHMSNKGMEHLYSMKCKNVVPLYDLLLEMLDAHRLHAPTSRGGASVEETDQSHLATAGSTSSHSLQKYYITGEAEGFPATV

SMILES	% Degradation At 0.3 μM	IC50	DC50
CC1(C)CCC(C2=C(c3ncc(C=C4CN(CCCF)C4)cc3F)c3ccc(C(=O)O)cc3CCC2)CC1 [Compound 65, 8-(4,4-dimethylcyclohexyl)-9-(3-fluoro-5-((1-(3-fluoropropyl)azetidin-3-ylidene)methyl)pyridin-2-yl)-6,7-dihydro-5H-benzo[7]annulene-3-carboxylic acid]	91%	0.8 nM	
CC1(C)CCC(C2=C(c3ncc(C=C4CN(CCC(F)F)C4)cc3F)c3ccc(C(=O)O)cc3CCC2)CC1 [Compound 66, 9-(5-((1-(3,3-difluoropropyl)azetidin-3-ylidene)methyl)-3-fluoropyridin-2-yl)-8-(4,4-dimethylcyclohexyl)-6,7-dihydro-5H-benzo[7]annulene-3-carboxylic acid]	86%	1.7 nM	
CC1(C)CCC(C2=C(c3ccc(C=C4CN(CCCF)C4)cc3)c3ccc(C(=O)O)cc3CCC2)CC1 [Compound 68, 8-(4,4-dimethylcyclohexyl)-9-(4-((1-(3-fluoropropyl)azetidin-3-ylidene)methyl)phenyl)-6,7-dihydro-5H-benzo[7]annulene-3-carboxylic acid]	86%		0.7 nM
COc1cc(C(F)(F)F)cc(C(F)(F)F)c1C1=C(c2ccc(C=C3CN(CCCF)C3)cc2)c2ccc(C(=O)O)cc2CCC1 [Compound 71, 9-(4-((1-(3-fluoropropyl)azetidin-3-ylidene)methyl)phenyl)-8-(2-methoxy-4,6-bis(trifluoromethyl)phenyl)-6,7-dihydro-5H-benzo[7]annulene-3-carboxylic acid]	95%	0.5 nM	
Cc1cc(C)c(C2=C(c3ccc(C=C4CN(CCCF)C4)cc3)c3ccc(C(=O)O)cc3CCC2)c(C(F)(F)F)c1 [Compound 72, 8-(2,4-dimethyl-6-(trifluoromethyl)phenyl)-9-(4-((1-(3-fluoropropyl)azetidin-3-ylidene)methyl)phenyl)-6,7-dihydro-5H-benzo[7]annulene-3-carboxylic acid]	100%	0.3 nM	
Cc1cc(C(F)(F)F)c(C)cc1C1=C(c2ccc(C=C3CN(CCCF)C3)cc2)c2ccc(C(=O)O)cc2CCC1 [Compound 78, 8-(2,5-dimethyl-4-(trifluoromethyl)phenyl)-9-(4-((1-(3-fluoropropyl)azetidin-3-ylidene)methyl)phenyl)-6,7-dihydro-5H-benzo[7]annulene-3-carboxylic acid]	94%	0.4 nM	
CCc1cc(C)cc(CC)c1C1=C(c2ccc(C=C3CN(CCCF)C3)cc2)c2ccc(C(=O)O)cc2CCC1 [Compound 80, 8-(2,6-diethyl-4-methylphenyl)-9-(4-((1-(3-fluoropropyl)azetidin-3-ylidene)methyl)phenyl)-6,7-dihydro-5H-benzo[7]annulene-3-carboxylic acid]	105%	1.2 nM	
COc1cc(Cl)cc(C)c1C1=C(c2ccc(C=C3CN(CCCF)C3)cc2)c2ccc(C(=O)O)cc2CCC1 [Compound 83, 8-(4-chloro-2-methoxy-6-methylphenyl)-9-(4-((1-(3-fluoropropyl)azetidin-3-ylidene)methyl)phenyl)-6,7-dihydro-5H-benzo[7]annulene-3-carboxylic acid]	94%	0.4 nM	
Cc1ccc(C(F)(F)F)c(C)c1C1=C(c2ccc(C=C3CN(CCCF)C3)cc2)c2ccc(C(=O)O)cc2CCC1 [Compound 84, 8-(2,6-dimethyl-3-(trifluoromethyl)phenyl)-9-(4-((1-(3-fluoropropyl)azetidin-3-ylidene)methyl)phenyl)-6,7-dihydro-5H-benzo[7]annulene-3-carboxylic acid]	91%	0.6 nM	

Further lines, results first:

% Degradation At 0.3 μM	IC50	DC50	SMILES
94%	1 nM		COc1c(C2=C(c3ccc(C=C4CN(CCCF)C4)cc3)c3ccc(C(=O)O)cc3CCC2)cccc1C(F)(F)F [Compound 63, 9-(4-((1-(3-fluoropropyl)azetidin-3-ylidene)methyl)phenyl)-8-(2-methoxy-3-(trifluoromethyl)phenyl)-6,7-dihydro-5H-benzo[7]annulene-3-carboxylic acid]
96%	3.1 nM		O=C(O)c1ccc2c(c1)CCCC(c1cccc3c1CCCO3)=C2c1ccc(C=C2CN(CCCF)C2)cc1 [Compound 64, 8-(chroman-5-yl)-9-(4-((1-(3-fluoropropyl)azetidin-3-ylidene)methyl)phenyl)-6,7-dihydro-5H-benzo[7]annulene-3-carboxylic acid]
90%	1 nM		O=C(O)c1ccc2c(c1)CCCC(c1cccc3c1OCCC3)=C2c1ccc(C=C2CN(CCCF)C2)cc1 [Compound 67, 8-(chroman-8-yl)-9-(4-((1-(3-fluoropropyl)azetidin-3-ylidene)methyl)phenyl)-6,7-dihydro-5H-benzo[7]annulene-3-carboxylic acid]
85%		0.3 nM	Cc1c(C2=C(c3ccc(C=C4CN(CCCF)C4)cc3)c3ccc(C(=O)O)cc3CCC2)ccc(C(F)(F)F)c1F [Compound 73, 8-(3-fluoro-2-methyl-4-(trifluoromethyl)phenyl)-9-(4-((1-(3-fluoropropyl)azetidin-3-ylidene)methyl)phenyl)-6,7-dihydro-5H-benzo[7]annulene-3-carboxylic acid]
90%	0.8 nM		CCc1cccc(CC)c1C1=C(c2ccc(C=C3CN(CCCF)C3)cc2)c2ccc(C(=O)O)cc2CCC1 [Compound 74, 8-(2,6-diethylphenyl)-9-(4-((1-(3-fluoropropyl)azetidin-3-ylidene)methyl)phenyl)-6,7-dihydro-5H-benzo[7]annulene-3-carboxylic acid]
95%	0.2 nM		Cc1ccc(F)c(C)c1C1=C(c2ccc(C=C3CN(CCCF)C3)cc2)c2ccc(C(=O)O)cc2CCC1 [Compound 75, 8-(3-fluoro-2,6-dimethylphenyl)-9-(4-((1-(3-fluoropropyl)azetidin-3-ylidene)methyl)phenyl)-6,7-dihydro-5H-benzo[7]annulene-3-carboxylic acid]
95%	0.2 nM		Cc1cc(C)c(C2=C(c3ccc(C=C4CN(CCCF)C4)cc3)c3ccc(C(=O)O)cc3CCC2)c(F)c1 [Compound 76, 8-(2-fluoro-4,6-dimethylphenyl)-9-(4-((1-(3-fluoropropyl)azetidin-3-ylidene)methyl)phenyl)-6,7-dihydro-5H-benzo[7]annulene-3-carboxylic acid]
95%	0.7 nM		Cc1cccc(OC(F)(F)F)c1C1=C(c2ccc(C=C3CN(CCCF)C3)cc2)c2ccc(C(=O)O)cc2CCC1 [Compound 77, 9-(4-((1-(3-fluoropropyl)azetidin-3-ylidene)methyl)phenyl)-8-(2-methyl-6-(trifluoromethoxy)phenyl)-6,7-dihydro-5H-benzo[7]annulene-3-carboxylic acid]
100%	0.4 nM		O=C(O)c1ccc2c(c1)CCCC(c1cccc(C(F)(F)F)c1C(F)(F)F)=C2c1ccc(C=C2CN(CCCF)C2)cc1 [Compound 79, 8-(2,3-bis(trifluoromethyl)phenyl)-9-(4-((1-(3-fluoropropyl)azetidin-3-ylidene)methyl)phenyl)-6,7-dihydro-5H-benzo[7]annulene-3-carboxylic acid]
92%	0.7 nM		COc1cccc(C2=C(c3ccc(C=C4CN(CCCF)C4)cc3)c3ccc(C(=O)O)cc3CCC2)c1OC [Compound 81, 8-(2,3-dimethoxyphenyl)-9-(4-((1-(3-fluoropropyl)azetidin-3-ylidene)methyl)phenyl)-6,7-dihydro-5H-benzo[7]annulene-3-carboxylic acid]
95%	1.4 nM		COc1ccc(C2=C(c3ccc(C=C4CN(CCCF)C4)cc3)c3ccc(C(=O)O)cc3CCC2)cc1OC [Compound 82, 8-(3,4-dimethoxyphenyl)-9-(4-((1-(3-fluoropropyl)azetidin-3-ylidene)methyl)phenyl)-6,7-dihydro-5H-benzo[7]annulene-3-carboxylic acid]

— patent publication US20250255848A1, “SUBSTITUTED 6,7-DIHYDRO-5H-BENZO[7]ANNULENE DERIVATIVES, PROCESSES FOR THEIR PREPARATION AND THERAPEUTIC USES THEREOF” (SANOFI, priority 2022, published 2025)
